Results reported in ChEMBL document CHEMBL1143733, “Synthesis and structure-antituberculosis activity relationship of 1H-indole-2,3-dione derivatives” (Bioorg Med Chem, 2007).
Converted amounts (≈) assume the structure as drawn.

Experiments:
[1] = tested on: Mycobacterium tuberculosis; assay: Growth inhibition of Mycobacterium tuberculosis H37Rv at 6.25 ug/mL by microplate alamar blue assay; format: functional; settings: read-out: GI
[2] = tested on: Mycobacterium tuberculosis; assay: Antituberculosis activity against Mycobacterium tuberculosis H37Rv by microplate alamar blue assay; format: functional
Vero = assay: Cytotoxicity against Vero cells; format: cell-based; settings: Chlorocebus sabaeus

SMILES | inhibition of growth at 6.25 µg/mL [1] [%] | MIC [2] [µg/mL] | IC50 (Vero) [µg/mL]
O=C1Nc2ccc([N+](=O)[O-])cc2/C1=N/NC(=S)Nc1ccc(F)cc1 | 24 | – | –
CNC(=S)N/N=C1\C(=O)N(CN2CCCCC2)c2ccc(F)cc21 | 20 | – | –
C=CCNC(=S)N/N=C1\C(=O)N(CN2CCOCC2)c2ccc(F)cc21 | 24 | – | –
C=CCNC(=S)N/N=C1\C(=O)N(CN2CCCCC2)c2ccc(F)cc21 | 20 | – | –
C=CCNC(=S)N/N=C1\C(=O)N(CN2CCCCC2)c2ccc([N+](=O)[O-])cc21 | 22 | – | –
CCN1C(=O)CS/C1=N/N=C1\C(=O)Nc2ccc([N+](=O)[O-])cc21 | 0 | – | –
CCCCNC(=S)N/N=C1\C(=O)N(CN2CCOCC2)c2ccc([N+](=O)[O-])cc21 | 30 | – | –
O=C1/C(=N\NC(=S)NC2CCCCC2)c2cc([N+](=O)[O-])ccc2N1CN1CCOCC1 | 90 | 6.25 (≈ 14 µM) | –
O=C1/C(=N\NC(=S)Nc2ccccc2)c2cc([N+](=O)[O-])ccc2N1CN1CCOCC1 | 93 | > 6.25 | 2.8 (≈ 6.36 µM)
O=C1/C(=N\NC(=S)NC2CCCCC2)c2cc(F)ccc2N1CN1CCOCC1 | 33 | – | –
O=C1/C(=N\NC(=S)NCc2ccccc2)c2cc(F)ccc2N1CN1CCOCC1 | 0 | – | –
Cc1ccc(NC(=S)N/N=C2\C(=O)N(CN3CCCCC3)c3ccc(F)cc32)cc1 | 51 | – | –
O=C1/C(=N\NC(=S)Nc2ccc(Cl)cc2)c2cc(F)ccc2N1CN1CCOCC1 | 58 | – | –
O=C1/C(=N\NC(=S)Nc2ccc(Cl)cc2)c2cc(F)ccc2N1CN1CCCCC1 | 63 | – | –
O=C1/C(=N\NC(=S)Nc2ccccc2)c2cc([N+](=O)[O-])ccc2N1CN1CCCCC1 | 31 | – | –
Cc1ccc(NC(=S)N/N=C2\C(=O)N(CN3CCOCC3)c3ccc([N+](=O)[O-])cc32)cc1 | 92 | > 6.25 | 17 (≈ 37.4 µM)
O=C1/C(=N\NC(=S)Nc2ccc(Cl)cc2)c2cc([N+](=O)[O-])ccc2N1CN1CCOCC1 | 65 | – | –
O=C1/C(=N\NC(=S)Nc2ccc(F)cc2)c2cc(F)ccc2N1CN1CCCCC1 | 38 | – | –
O=C1/C(=N\NC(=S)Nc2ccc(Cl)cc2)c2cc([N+](=O)[O-])ccc2N1CN1CCCCC1 | 54 | – | –
C=CCN1C(=O)CS/C1=N/N=C1\C(=O)Nc2ccc([N+](=O)[O-])cc21 | 2 | – | –
O=C1Nc2ccc([N+](=O)[O-])cc2/C1=N/N=C1/SCC(=O)N1c1ccccc1 | 0 | – | –
Cc1ccc(N2C(=O)CS/C2=N/N=C2\C(=O)Nc3ccc([N+](=O)[O-])cc32)cc1 | 17 | – | –
O=C1Nc2ccc([N+](=O)[O-])cc2/C1=N/N=C1/SCC(=O)N1c1ccc(Cl)cc1 | 0 | – | –

SMILES | inhibition of growth at 6.25 µg/mL [1] [%] | MIC [2] [µg/mL] | IC50 (Vero) [µg/mL]
C=CCN1C(=O)C(C)S/C1=N/N=C1\C(=O)Nc2ccc([N+](=O)[O-])cc21 (configuration not stated) | 3 | – | –
CCCCN1C(=O)C(C)S/C1=N/N=C1\C(=O)Nc2ccc([N+](=O)[O-])cc21 (configuration not stated) | 10 | – | –
CC1S/C(=N/N=C2\C(=O)Nc3ccc([N+](=O)[O-])cc32)N(c2ccccc2)C1=O (configuration not stated) | 9 | – | –
CC1S/C(=N/N=C2\C(=O)Nc3ccc([N+](=O)[O-])cc32)N(c2ccc(Br)cc2)C1=O (configuration not stated) | 3 | – | –
O=C1Nc2ccc([N+](=O)[O-])cc2/C1=N/NC(=S)NC1CCCCC1 | 90 | > 6.25 | 4.74 (≈ 13.6 µM)
Cc1ccc(NC(=S)N/N=C2\C(=O)Nc3ccc([N+](=O)[O-])cc32)cc1 | 93 | 6.25 (≈ 17.6 µM) | 2.45 (≈ 6.89 µM)
O=C1Nc2ccc([N+](=O)[O-])cc2/C1=N/NC(=S)Nc1ccc(Br)cc1 | 90 | > 6.25 | 2.59 (≈ 6.16 µM)
O=C1Nc2ccc(F)cc2/C1=N/NC(=S)Nc1ccc(Cl)cc1 | 37 | – | –
O=C1Nc2ccc(F)cc2/C1=N/NC(=S)Nc1ccc(F)cc1 | 58 | – | –
CCNC(=S)N/N=C1\C(=O)Nc2ccc([N+](=O)[O-])cc21 | 0 | – | –
CCCCNC(=S)N/N=C1\C(=O)Nc2ccc([N+](=O)[O-])cc21 | 42 | – | –
CCCCNC(=S)N/N=C1\C(=O)Nc2ccc(F)cc21 | 16 | – | –
O=C1Nc2ccc(F)cc2/C1=N/NC(=S)NC1CCCCC1 | 39 | – | –
Cc1ccc(NC(=S)N/N=C2\C(=O)Nc3ccc(F)cc32)cc1 | 36 | – | –
CCNC(=S)N/N=C1\C(=O)Nc2ccc(F)cc21 | 8 | – | –
CC1S/C(=N/N=C2\C(=O)Nc3ccc([N+](=O)[O-])cc32)N(c2ccc([N+](=O)[O-])cc2)C1=O (configuration not stated) | 9 | – | –
O=C1Nc2ccc([N+](=O)[O-])cc2/C1=N/NC(=S)Nc1ccc([N+](=O)[O-])cc1 | 2 | – | –
CNC(=S)N/N=C1\C(=O)N(CN2CCOCC2)c2ccc(F)cc21 | 12 | – | –
O=C1Nc2ccc([N+](=O)[O-])cc2/C1=N/N=C1/SCC(=O)N1c1ccc(F)cc1 | 0 | – | –
CC1S/C(=N/N=C2\C(=O)Nc3ccc([N+](=O)[O-])cc32)N(C2CCCCC2)C1=O (configuration not stated) | 28 | – | –
CCCCN1C(=O)CS/C1=N/N=C1\C(=O)Nc2ccc([N+](=O)[O-])cc21 | 0 | – | –
O=C1Nc2ccc([N+](=O)[O-])cc2/C1=N/N=C1/SCC(=O)N1C1CCCCC1 | 0 | – | –
O=C1Nc2ccc([N+](=O)[O-])cc2/C1=N/N=C1/SCC(=O)N1c1ccc(Br)cc1 | 0 | – | –

SMILES | inhibition of growth at 6.25 µg/mL [1] [%] | MIC [2] [µg/mL] | IC50 (Vero) [µg/mL]
O=C1/C(=N\NC(=S)Nc2ccccc2)c2cc(F)ccc2N1CN1CCCCC1 | 45 | – | –
CN1C(=O)CS/C1=N/N=C1\C(=O)Nc2ccc([N+](=O)[O-])cc21 | 0 | – | –
O=C1Nc2ccc(F)cc2/C1=N/NC(=S)Nc1ccccc1 | 61 | – | –
CNC(=S)N/N=C1\C(=O)N(CN2CCOCC2)c2ccc([N+](=O)[O-])cc21 | 96 | > 6.25 | 7.61 (≈ 20.1 µM)
O=C1/C(=N\NC(=S)NC2CCCCC2)c2cc([N+](=O)[O-])ccc2N1CN1CCCCC1 | 87 | – | –
Cc1ccc(NC(=S)N/N=C2\C(=O)N(CN3CCCCC3)c3ccc([N+](=O)[O-])cc32)cc1 | 88 | – | –
O=C1Nc2ccc([N+](=O)[O-])cc2/C1=N/NC(=S)Nc1ccccc1 | 33 | – | –
CC1S/C(=N/N=C2\C(=O)Nc3ccc([N+](=O)[O-])cc32)N(c2ccc(F)cc2)C1=O (configuration not stated) | 5 | – | –
Cc1ccc(N2C(=O)C(C)S/C2=N/N=C2\C(=O)Nc3ccc([N+](=O)[O-])cc32)cc1 (configuration not stated) | 0 | – | –
CC1S/C(=N/N=C2\C(=O)Nc3ccc([N+](=O)[O-])cc32)N(c2ccc(Cl)cc2)C1=O (configuration not stated) | 0 | – | –
O=C1Nc2ccc(F)cc2/C1=N/NC(=S)Nc1ccc([N+](=O)[O-])cc1 | 31 | – | –
C=CCNC(=S)N/N=C1\C(=O)Nc2ccc([N+](=O)[O-])cc21 | 25 | – | –
O=C1/C(=N\NC(=S)Nc2ccc(F)cc2)c2cc(F)ccc2N1CN1CCOCC1 | 48 | – | –
CCCCNC(=S)N/N=C1\C(=O)N(CN2CCOCC2)c2ccc(F)cc21 | 34 | – | –
O=C1/C(=N\NC(=S)NCc2ccccc2)c2cc(F)ccc2N1CN1CCCCC1 | 3 | – | –
O=C1/C(=N\NC(=S)Nc2ccccc2)c2cc(F)ccc2N1CN1CCOCC1 | 56 | – | –
CCNC(=S)N/N=C1\C(=O)N(CN2CCOCC2)c2ccc(F)cc21 | 1 | – | –
CCNC(=S)N/N=C1\C(=O)N(CN2CCCCC2)c2ccc(F)cc21 | 2 | – | –
O=C1Nc2ccc([N+](=O)[O-])cc2/C1=N/NC(=S)Nc1ccc(Cl)cc1 | 75 | – | –
C=CCNC(=S)N/N=C1\C(=O)Nc2ccc(F)cc21 | 30 | – | –
CO[C@H]1/C=C/O[C@@]2(C)Oc3c(C)c(O)c4c(O)c(c(/C=N/N5CCN(C)CC5)c(O)c4c3C2=O)NC(=O)/C(C)=C\C=C\[C@H](C)[C@H](O)[C@@H](C)[C@@H](O)[C@@H](C)[C@H](OC(C)=O)[C@@H]1C [RIFAMPIN] | 97 | 0.125 (≈ 0.152 µM) | > 100
